The source made the active and inactive calls. The calls are words filed in the database; no cut-off is given here.
Assays:
[1] = Cytotoxicity against African green monkey Vero cells incubated for 24 hrs by neutral red uptake assay; type: toxicity, cell-based; details: chlorocebus sabaeus; for MNTC at 24 h: read-out: MTD
[2] = target: T1, Shiga toxin subunit A (Shigella dysenteriae) (UniProt Q9FBI2)
T1 sequence (whole entry): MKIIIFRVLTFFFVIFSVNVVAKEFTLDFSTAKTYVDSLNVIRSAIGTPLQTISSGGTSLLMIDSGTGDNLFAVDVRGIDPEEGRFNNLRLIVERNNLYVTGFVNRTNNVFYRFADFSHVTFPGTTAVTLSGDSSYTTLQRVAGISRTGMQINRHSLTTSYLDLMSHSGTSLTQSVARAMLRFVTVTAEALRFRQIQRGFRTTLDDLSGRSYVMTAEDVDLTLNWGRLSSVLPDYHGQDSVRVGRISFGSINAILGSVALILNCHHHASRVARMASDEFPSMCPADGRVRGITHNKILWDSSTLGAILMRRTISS

Mus musculus [3] = experiment: Inhibition of Shigella dysenteriae Shiga toxin-induced mortality in Balb/c mouse exposed to 5 x LD50 Shigella toxin assessed as reduction in symptomatic effects of toxin at 2 mM, ip preincubated with Stx for 1 hr measured after 0 to 14 days; type: functional, organism-based
Mus musculus [4] = experiment: Inhibition of Shigella dysenteriae Shiga toxin-induced mortality in Balb/c mouse exposed to 5 x LD50 Shigella toxin assessed as increase in mouse survival at 2 mM, ip preincubated with Stx for 1 hr measured after 0 to 14 days; type: functional, organism-based
Mus musculus [5] = experiment: Toxicity in Balb/c mouse at 2 mM, ip measured after 0 to 14 days; type: organism-based; details: in vivo, 2000 µM
Mus musculus [6] = experiment: Inhibition of Shigella dysenteriae Shiga toxin-induced mortality in Balb/c mouse exposed to 5 x LD50 Shigella toxin assessed as increase in mouse survival at 2 mM, ip dosed 1 after toxin injection measured after 24 to 48 hrs; type: functional, organism-based
Mus musculus [7] = experiment: Inhibition of Shigella dysenteriae Shiga toxin-induced mortality in Balb/c mouse exposed to 5 x LD50 Shigella toxin assessed as increase in mouse survival at 2 mM, ip dosed 1 hr before toxin injection measured after 24 to 48 hrs; type: functional, organism-based
[8] = Inhibition of Shigella dysenteriae type 2 Shiga toxin in African green monkey Vero cells assessed as inhibition of Stx-induced cytotoxicity incubated for 10 hrs by MTS/PMS assay; type: cell-based

Work on COc1ccc(/C=C/C(=O)c2ccccc2O)cc1 yielded an MNTC at 24 h [1] of 7.35 µM.

In the case of O=c1cc(-c2ccccc2F)[nH]c2ccccc12, the MNTC at 24 h [1] is reported as 5 µM.

With Cc1ccsc1-c1cc(=O)c2ccccc2[nH]1 the MNTC at 24 h [1] was 5.33 µM.

In the case of Nc1nc2[nH]cnc2c(=O)[nH]1, the ΔTm [2] is reported as 4.45 °C.

With CC(=O)c1ccccc1NC(=O)c1ccccc1F the CC50 at 24 h [1] was 120 µM, the MNTC at 24 h [1] was 37 µM and the inhibition (Mus musculus [3]) was “Active”. The inhibition (Mus musculus [4]) was “Active”, the Activity (Mus musculus [5]) was “Non-Toxic” and the inhibition (Mus musculus [6]) was “Active”. The inhibition (Mus musculus [7]) was “Active”.

Compound O=C(/C=C/c1ccccc1F)c1ccccc1O has an MNTC at 24 h [1] of 5.67 µM.

With O=C1NC(=O)C2N=CNC2N1 (centres undefined) the MNTC at 24 h [1] was 9.3 µM.

In the case of Nc1nc(N)c2[nH]cnc2n1 [2,6-DIAMINOPURINE], the MNTC at 24 h [1] is reported as 9.3 µM.

In the case of c1ccc(SCCNCCN2CCCC2)cc1, the MNTC at 24 h [1] is reported as 63.3 µM and the IC50 [8] is reported as 25 µM.

With O=C(/C=C\c1ccccc1)NCCO the MNTC at 24 h [1] was 31.6 µM.

Work on CC(=O)c1ccccc1NC(=O)c1ccc([N+](=O)[O-])cc1 yielded an MNTC at 24 h [1] of 17.3 µM.

In the case of O=C(NCCNCCSc1ccccc1)c1ccc([N+](=O)[O-])cc1, the CC50 at 24 h [1] is reported as 177 µM, the MNTC at 24 h [1] is reported as 15 µM and the inhibition (Mus musculus [3]) is reported as “Active”. For the same compound, the inhibition (Mus musculus [4]) was “Active”, the Activity (Mus musculus [5]) was “Non-Toxic” and the inhibition (Mus musculus [6]) was “Active”. The inhibition (Mus musculus [7]) was “Active”.

Work on O=C(/C=C/c1ccccc1)Oc1c(-c2ccccc2)oc2ccccc2c1=O yielded an MNTC at 24 h [1] of 64 µM.

In the case of CCCSCCNCCNC(=O)/C=C/c1ccccc1, the CC50 at 24 h [1] is reported as 123 µM, the MNTC at 24 h [1] is reported as 38 µM and the inhibition (Mus musculus [3]) is reported as “Active”. For the same compound, the inhibition (Mus musculus [4]) was “Active”, the Activity (Mus musculus [5]) was “Non-Toxic” and the inhibition (Mus musculus [6]) was “Active”. The inhibition (Mus musculus [7]) was “Active”.

In the case of O=C(/C=C/c1cccs1)c1ccccc1O, the MNTC at 24 h [1] is reported as 17 µM.

O=C1NCN=C2NC=NC12 (centres undefined) showed an MNTC at 24 h [1] of 125 µM and a ΔTm [2] of 2.32 °C.

With S=C1N=CN=C2NC=NC12 (centres undefined) the MNTC at 24 h [1] was 18.7 µM.

Compound Oc1cc(/C=C/c2ccccc2)nc2ccccc12 has an MNTC at 24 h [1] of 9.33 µM.

CC(=O)c1ccccc1NC(=O)c1ccc(F)cc1 showed an MNTC at 24 h [1] of 10 µM.

With Nc1nc2nc[nH]c2c(=O)[nH]1 [GUANINE] the CC50 at 24 h [1] was 136 µM, the MNTC at 24 h [1] was 125 µM and the Activity (Mus musculus [5]) was “Non-Toxic”.

For Nc1ncnc2c1ncn2[C@@H]1O[C@H](CO)[C@@H](O)[C@H]1O [ADENOSINE], the MNTC at 24 h [1] was 125 µM.

Nc1ncnc2nn[nH]c12 gave an MNTC at 24 h [1] of 18.7 µM.

For CCCCSCCNCCNP(=S)(OCC)OCC, the MNTC at 24 h [1] was 32.3 µM and the IC50 [8] was 25 µM.

Work on Nc1ccncn1 yielded an MNTC at 24 h [1] of 250 µM.

For Oc1ncnc2[nH]ncc12 [ALLOPURINOL], the CC50 at 24 h [1] was 428 µM, the MNTC at 24 h [1] was 250 µM and the ΔTm [2] was 3.75 °C. The Activity (Mus musculus [5]) was “Non-Toxic”.

Compound Cc1ncnc2nc[nH]c12 has an MNTC at 24 h [1] of 9.3 µM.

Nc1ncnc2c1ncn2[C@@H]1O[C@H](COP(=O)(O)O)[C@@H](O)[C@H]1O [ADENOSINE PHOSPHATE] showed an MNTC at 24 h [1] of 75 µM.

O=C(NCCNCCSc1ccccc1)C1CCCCC1 gave an MNTC at 24 h [1] of 38 µM.

Compound O=C(/C=C/c1ccccc1)Nc1ccccc1O [N-(2-HYDROXYPHENYL)CINNAMAMIDE] has an MNTC at 24 h [1] of 32 µM.

Work on Nc1ncc2[nH]cnc2n1 [2-AMINOPURINE] yielded an MNTC at 24 h [1] of 125 µM.

With CCCSCCNCCNC(=O)c1ccc(Cl)cc1 the MNTC at 24 h [1] was 124 µM.

With CC(=O)c1ccccc1NC(=O)/C=C\c1ccccc1 the CC50 at 24 h [1] was 29.7 µM, the MNTC at 24 h [1] was 6.96 µM and the inhibition (Mus musculus [3]) was “Active”. For the same compound, the inhibition (Mus musculus [4]) was “Active”, the Activity (Mus musculus [5]) was “Non-Toxic” and the inhibition (Mus musculus [6]) was “Active”. The inhibition (Mus musculus [7]) was “Active”.
